Measurements published in patent US8394825B2, “Compound” (Sterix Limited, priority 2007, dated 2013).

SMILES | melting point
COc1cccc(CN2CCc3cc(O)ccc3C2)c1OC [B21, 2-(2,3-Dimethoxybenzyl)-1,2,3,4-tetrahydroisoquinolin-6-ol] | 111 to 115 °C
CCOc1ccc(CN2CCc3cc(O)ccc3C2)cc1OCC [B22, 2-(3,4-Diethoxybenzyl)-1,2,3,4-tetrahydroisoquinolin-6-ol] | 150 to 154 °C
COc1ccc(CN2CCc3cc(O)ccc3C2)cc1OC [B23, 2-(3,4-Dimethoxybenzyl)-1,2,3,4-tetrahydroisoquinolin-6-ol] | 119 to 122 °C
Oc1ccc2c(c1)CCN(Cc1ccc3c(c1)OCO3)C2 [B24, 2-(Benzo[d][1,3]dioxol-5-ylmethyl)-1,2,3,4-tetrahydroisoquinolin-6-ol] | 169 to 172 °C
COc1ccc(CN2CCc3cc(O)ccc3C2)c(OC)c1 [B25, 2-(2,4-Dimethoxybenzyl)-1,2,3,4-tetrahydroisoquinolin-6-ol] | 149 to 152 °C
COc1cc(OC)c(OC)cc1CN1CCc2cc(O)ccc2C1 [B26, 2-(2,4,5-Trimethoxybenzyl)-1,2,3,4-tetrahydroisoquinolin-6-ol] | 188 to 191 °C
CCOc1cc(CN2CCc3cc(O)ccc3C2)cc(OCC)c1OCC [B27, 2-(3,4,5-triethoxybenzyl)-1,2,3,4-tetrahydroisoquinolin-6-ol] | 140 to 142 °C
COc1cc(O)c(CN2CCc3cc(O)ccc3C2)c(OC)c1 [B28, 2-(2-Hydroxy-4,6-dimethoxybenzyl)-1,2,3,4-tetrahydroisoquinolin-6-ol] | 109 to 112 °C
COc1cc(CCN2CCc3cc(O)ccc3C2)cc(OC)c1OC [B29, 2-(3,4,5-Trimethoxyphenethyl)-1,2,3,4-tetrahydroisoquinolin-6-ol] | 180 to 186 °C
COc1cc2c(cc1OCc1ccccc1)CCN(Cc1cccc([N+](=O)[O-])c1)C2 [compound 10, 6-Benzyloxy-7-methoxy-2-(3-nitrobenzyl)-1,2,3,4-tetrahydroisoquinoline] | 109 to 110 °C
COc1cc2c(cc1OCc1ccccc1)CCN(Cc1cccnc1)C2 [compound 11, 6-Benzyloxy-7-methoxy-2-(pyridin-3-ylmethyl)-1,2,3,4-tetrahydroisoquinoline] | 78 to 79 °C
COc1cc2c(cc1OCc1ccccc1)CCN(Cc1ccccn1)C2 [compound 12, 6-Benzyloxy-7-methoxy-2-(pyridin-2-ylmethyl)-1,2,3,4-tetrahydroisoquinoline] | 73 to 74 °C

Results, then the molecule that gave them:

melting point | SMILES
70 to 72 °C | COc1cc(OC)c(C(=O)N2CCc3cc(OCc4ccccc4)c(OC)cc3C2)c(OC)c1 [F1, 6-Benzyloxy-7-methoxy-2-(2,4,6-trimethoxybenzoyl)-1,2,3,4-tetrahydroisoquinoline]
129 to 131 °C | COc1cc(OC)c(CN2CCc3cc(OCc4ccccc4)c(OC)cc3C2)c(OC)c1 [F2, 6-Benzyloxy-7-methoxy-2-(2,4,6-trimethoxybenzyl)-1,2,3,4-tetrahydroisoquinoline]
150 to 151 °C | COc1cc(OC)c(CN2CCc3cc(O)c(OC)cc3C2)c(OC)c1 [F3, 7-Methoxy-2-(2,4,6-trimethoxybenzyl)-1,2,3,4-tetrahydroisoquinolin-6-ol]
116 to 117 °C | COc1cc2c(cc1OCc1ccccc1)CCN(Cc1cc(F)cc(F)c1)C2 [F5, 6-Benzyloxy-2-(3,5-difluorobenzyl)-7-methoxy-1,2,3,4-tetrahydroisoquinoline]
110 to 111 °C | COc1cc2c(cc1O)CCN(Cc1cc(F)cc(F)c1)C2 [F6, 2-(3,5-Difluorobenzyl)-7-methoxy-1,2,3,4-tetrahydroisoquinolin-6-ol]
115 to 116 °C | COc1cccc(CN2Cc3cc(OC)c(OCc4ccccc4)cc3C(O)C2)c1 (stereo not drawn) [F17, 6-Benzyloxy-7-methoxy-2-(3-methoxybenzyl)-1,2,3,4-tetrahydroisoquinolin-4-ol]
101 to 102 °C | COc1ccccc1CN1Cc2cc(OC)c(OCc3ccccc3)cc2C(OC)C1 (stereo not drawn) [F19, 6-Benzyloxy-4,7-dimethoxy-2-(2-methoxybenzyl)-1,2,3,4-tetrahydroisoquinoline]
96 to 97 °C | COc1cccc(CN2Cc3cc(OC)c(OCc4ccccc4)cc3C(OC)C2)c1 (stereo not drawn) [F20, 6-Benzyloxy-4,7-dimethoxy-2-(3-methoxybenzyl)-1,2,3,4-tetrahydroisoquinoline]
89 to 90 °C | COc1cc2c(cc1OCc1ccccc1)C(OC)CN(Cc1cc(OC)c(OC)c(OC)c1)C2 (stereo not drawn) [F22, 6-Benzyloxy-4,7-dimethoxy-2-(3,4,5-trimethoxybenzyl)-1,2,3,4-tetrahydroisoquinoline]
84 to 85 °C | CCOC1CN(Cc2ccc(OC)cc2)Cc2cc(OC)c(OCc3ccccc3)cc21 (stereo not drawn) [F25, 6-Benzyloxy-4-ethoxy-7-methoxy-2-(4-methoxybenzyl)-1,2,3,4-tetrahydroisoquinoline]
132 to 133 °C | CCOC1CN(Cc2cc(OC)c(OC)c(OC)c2)Cc2cc(OC)c(OCc3ccccc3)cc21 (stereo not drawn) [F26, 6-Benzyloxy-4-ethoxy-7-methoxy-2-(3,4,5-trimethoxybenzyl)-1,2,3,4-tetrahydro-isoquinoline]
137 to 138 °C | COc1cccc(CN2Cc3cc(OC)c(O)cc3C(O)C2)c1 (stereo not drawn) [F28, 7-Methoxy-2-(3-methoxybenzyl)-1,2,3,4-tetrahydroisoquinoline-4,6-diol]
62 to 63 °C | COc1cc2c(cc1O)C(O)CN(Cc1cc(OC)c(OC)c(OC)c1)C2 (stereo not drawn) [F29, 7-Methoxy-2-(3,4,5-trimethoxybenzyl)-1,2,3,4-tetrahydroisoquinoline-4,6-diol]
45 to 47 °C | COc1cc2c(cc1O)C(OC)CN(Cc1ccccc1OC)C2 (stereo not drawn) [F30, 4,7-Dimethoxy-2-(2-methoxybenzyl)-1,2,3,4-tetrahydro-isoquinolin-6-ol]
133 to 134 °C | COc1cccc(CN2Cc3cc(OC)c(O)cc3C(OC)C2)c1 (stereo not drawn) [F31, 4,7-Dimethoxy-2-(3-methoxybenzyl)-1,2,3,4-tetrahydro-isoquinolin-6-ol]
84 to 85 °C | COc1ccc(CN2Cc3cc(OC)c(O)cc3C(OC)C2)cc1 (stereo not drawn) [F32, 4,7-Dimethoxy-2-(4-methoxybenzyl)-1,2,3,4-tetrahydro-isoquinolin-6-ol]
51 to 54 °C | COc1cc2c(cc1O)C(OC)CN(Cc1cc(OC)c(OC)c(OC)c1)C2 (stereo not drawn) [F33, 4,7-Dimethoxy-2-(3,4,5-trimethoxybenzyl)-1,2,3,4-tetrahydro-isoquinolin-6-ol]
101 to 102 °C | CCOC1CN(Cc2ccccc2OC)Cc2cc(OC)c(O)cc21 (stereo not drawn) [F34, 4-Ethoxy-7-methoxy-2-(2-methoxybenzyl)-1,2,3,4-tetrahydroisoquinolin-6-ol]
134 to 135 °C | CCOC1CN(Cc2cccc(OC)c2)Cc2cc(OC)c(O)cc21 (stereo not drawn) [F35, 4-Ethoxy-7-methoxy-2-(3-methoxy-benzyl)-1,2,3,4-tetrahydroisoquinolin-6-ol]
154 to 157 °C | CCOC1CN(Cc2ccc(OC)cc2)Cc2cc(OC)c(O)cc21 (stereo not drawn) [F36, 4-Ethoxy-7-methoxy-2-(4-methoxybenzyl)-1,2,3,4-tetrahydroisoquinolin-6-ol]
94 to 96 °C | CCOC1CN(Cc2cc(OC)c(OC)c(OC)c2)Cc2cc(OC)c(O)cc21 (stereo not drawn) [F37, 4-Ethoxy-7-methoxy-2-(3,4,5-trimethoxybenzyl)-1,2,3,4-tetrahydroisoquinolin-6-ol]
